Measured values from the NIST ThermoML archive (doi:10.1021/je100652b).
Numbers after ± are expanded uncertainties.

Conditions: 101.33 kPa, Liquid; for speed of sound: Sing-around technique in a fixed-path interferometer

SMILES | mass density (298.15 K) [kg/m3] | speed of sound (298.15 K) [m/s] | mass density (308.15 K) [kg/m3] | speed of sound (308.15 K) [m/s]
Cc1ccccc1 [toluene] | 862.21 ± 0.38 | 1304 ± 2 | 852.86 ± 0.39 | 1262 ± 2
CCCCO [butan-1-ol] | 805.91 ± 0.56 | 1244 ± 2 | 798.21 ± 0.57 | 1212 ± 2
C1CCCCC1 [cyclohexane] | 773.86 ± 0.51 | 1254 ± 2 | 764.46 ± 0.53 | 1212 ± 2
Cc1ccc(C)cc1 [1,4-dimethylbenzene] | 856.7 ± 0.39 | 1314 ± 2 | 847.88 ± 0.4 | 1272 ± 2
CCc1ccccc1 [ethylbenzene] | 862.63 ± 0.38 | 1319 ± 2 | 853.89 ± 0.39 | 1276 ± 2
c1ccccc1 [benzene] | 873.58 ± 0.36 | 1300 ± 2 | 862.96 ± 0.38 | 1260 ± 2

Next, values leading:

mass density (298.15 K) [kg/m3] | speed of sound (298.15 K) [m/s] | mass density (308.15 K) [kg/m3] | speed of sound (308.15 K) [m/s] | SMILES
818.91 ± 0.55 | 1330 ± 2 | 811.94 ± 0.55 | 1292 ± 2 | CCCCCCCO [heptan-1-ol]
937.6 ± 0.28 | 1182 ± 2 | 925.7 ± 0.3 | 1152 ± 2 | C=C(C)C(=O)OC [methyl methacrylate]
810.76 ± 0.56 | 1274 ± 2 | 803.41 ± 0.57 | 1240 ± 2 | CCCCCO [pentan-1-ol]
